In US9266922B2, “Antigen peptide and uses thereof” (priority 2011, dated 2016):
Read-outs that look alike come from different tables or passages of the source. Residues, ends and D or L forms follow the SMILES beside them.

Legend:
[1] = target: T1, HLA-A*0201 (Homo sapiens, UniProt P04439, D140Y/D185E/D98H/E176V/E277Q/G131W/G231S/I119V/I121R/I166T/I218V/L300P/L318F/N151K/N90K/P208A/P217A/Q86G/Q94H/R138H/R169H/T345S); assay: iTOPIA EDS MHC peptide binding assay; details: HLA-A*0201 monomer, relative to positive control peptide, 21° C. for 18 h
Description: MHC peptide binding assay using iTOPIA EDS
Microtiter 96 well plates containing HLA class I MHC monomer loaded with the human β2-microglobulin and a “placeholder” peptide were used to evaluate peptide binding, affinity, and off-rate.
The 502 nectin4 nonapeptides were first evaluated for their ability to bind to each MHC molecule in the peptide binding assay. In this assay, the placeholder peptides were stripped from the MHC class I monomer complexes coated on plastic, which leaves the MHC class I heavy chain available as a binding partner for candidate peptides in the presence of human β2-microglobulin.
Peptide binding was performed at 21° C. for 18 h. Revelation was done using an anti HLA-ABC-FITC mAb that binds to refolded MHC complex conformation. The relative fluorescent intensity was read using a fluorimeter (Molecular Devices, SpectraMax Gemini, Sunnyvale, Calif., USA).
Peptides with a binding>30% of the positive control peptide were selected as “binder” and subsequently analyzed for affinity (ED50) and off-rate (T1/2).

[2] = target: T1, HLA-A*0201; assay: biochemical; format: binding
[3] = target: T1, HLA-A*0201; assay: iScore calculation (iTOPIA system software); details: multiparametric score of binding, off-rate and affinity
[4] = target: T2, HLA A*0201 on CEM.T2 cell line (Homo sapiens, UniProt P04439, D140Y/D185E/D98H/E176V/E277Q/G131W/G231S/I119V/I121R/I166T/I218V/L300P/L318F/N151K/N90K/P208A/P217A/Q86G/Q94H/R138H/R169H/T345S); assay: Cellular binding assay, HLA stabilization on CEM.T2 cells; format: cell-based; details: 100 μM peptide, 37° C. for 4 h, FACS anti HLA-A2; relative to HBV positive control peptide
T2 construct: This cell line expresses HLA A*0201 but is deficient for TAP transporter; endogenous in cells; host or cells: CEM.T2 (T2) cell line
Experimental: The CEM.T2 cell line (T2) is defective in the processing of proteins for presentation by MHC class 1 molecules. This cell line expresses HLA A*0201 but is deficient for TAP transporter. T2 is classically used to assess the Peptide/HLA-A*0201 Complex Stability[H. W. Nijman et al., 1993]
For HLA-A2*0201 stabilization, T2 cells (2×10^5/well) were incubated in serum-free RPMI (Gibco®-France) with 100 μM of selected peptide, at 37° C. for 4 h. Cells were washed two times with PBS supplemented with 1% BSA and stained with fluorescein isothiocyanate-conjugated anti HLA-A2 (Clone BB7.2) (BD Bioscience Pharmingen-France-) at 4° C. for 45 min. After 3 washes, cells were fixed in PBS supplemented with 2% paraformaldehyde and analyzed by FACS (FACScan, BD Bioscience). The percentage of peptide binding was calculated as follows: % Binding={(MFI peptide sample−MFI Neg control)/(MFI Pos control−MFI Neg control)}×100
Negative control was done without peptide.

[5] = target: T2, HLA A*0201 on CEM.T2 cell line; assay: Cellular dissociation assay on CEM.T2 cells; format: cell-based; details: after Brefeldin A 1 h and 3 h in serum-free RPMI at 37° C. (4 h)
Experimental: Cellular Dissociation Assay
After HLA-A2*0201 stabilization with peptides at 37° C. for 4 h, T2 cells were incubated for 1 h, in serum-free RPMI containing Brefeldin A (10 μg/ml), an inhibitor of the transport of secretory and lysosomal proteins [G. J. Strous et al., 1993]. After 3 washes, T2 cells were incubated for 3 h in serum-free RPMI at 37° C. Binding was then measured by FACS and after 4 h incubation. Percentage of Residual Binding (% RB) was calculated as follows: […]

[6] = target: T1, HLA-A*0201; assay: F-Score ranking (iTOPIA and CEM T2); details: overall ranking by iTOPIA and CEM T2 assays, nectin4 and reference peptides together

Compound: CC(C)C[C@H](NC(=O)[C@@H](N)CC(C)C)C(=O)N[C@@H](C)C(=O)N[C@@H](CO)C(=O)N[C@@H](Cc1ccccc1)C(=O)N[C@H](C(=O)NCC(=O)N[C@@H](CCCNC(=N)N)C(=O)N[C@@H](CS)C(=O)O)[C@@H](C)O [Peptide 21] (H-LLASFTGRC-OH; N-terminus and C-terminus assumed)
- % Binding [1]: 91%
- EC50 ([2]; FIG. 2A, peptide concentration 10^−4 to 10^−9 M, read-out: estimated dose to reach 50% maximal binding (ED50)): ~100 nM
- EC50 ([2]; peptide concentration giving 50% of optimal binding, 10^−4 to 10^−9 M, 21° C. for 18 h, read-out: Affinity (ED50)): 600 nM
- iScore [3]: 0.727
- CEM.T2 % Binding [4]: 44%
- CEM.T2 % Residual Binding [5]: 86%
- RANK F-Score [6]: 11
